Source: patent US4526891A, “Substituted alkyl amine derivatives of 6,11-dihydro-11-oxodibenz[b,e]oxepins” (Hoechst Roussel Pharmaceuticals Inc., priority 1983, dated 1985)
Read-outs that look alike come from different tables or passages of the source.

System: 2-phenyl-1,4-benzoquinone-induced writhing
Experiment: 2-phenyl-1,4-benzoquinone-induced writhing test in mice (analgesia)
Format: in vivo
Settings: for ED50: Mus musculus
[1] = po, read-out: ED50 (dosage which exhibits 50% inhibition of writhing)

Question: For O=C1c2ccccc2COc2ccc(CCN3CCN(c4ccccc4)CC3)cc21 [1-[2-(6,11-Dihydro-11-oxodibenz[b,e]oxepin-2-yl)ethyl]-4-phenylpiperazine], which ED50 (oral dose, ** ED50, 50% inhibition, read-out: ED50 (dosage which exhibits 50% inhibition of writhing)) is on record?
Answer: The ED50 was 25 mg/kg.

Question: With CN(C)CCc1ccc2c(c1)C(=O)c1ccccc1CO2.Cl [2-(6,11-Dihydro-11-oxodibenz[b,e]oxepin-2-yl)-N,N-dimethylethylamine hydrochloride] as the compound, how does the “% Inhibition of writhing” value (25 mg/kg of body weight, subcutaneously (*)) read?
Answer: Its value is 66%.

Question: CNCCc1ccc2c(c1)C(=O)c1ccccc1CO2.Cl [2-(6,11-Dihydro-11-oxodibenz[b,e]oxepin-2-yl)-N-methylethylamine hydrochloride] was tested. Which ED50 [1] did it give?
Answer: The ED50 was 9.8 mg/kg.

Question: With Cl.NCCc1ccc2c(c1)C(=O)c1ccccc1CO2 [2-(6,11-Dihydro-11-oxodibenz[b,e]oxepin-2-yl)ethylamine hydrochloride] as the compound, how does the ED50 [1] read?
Answer: Its ED50 is 7.4 mg/kg.

Question: With CCC(=O)O[C@](Cc1ccccc1)(c1ccccc1)[C@H](C)CN(C)C [propoxyphene, reference compound] as the compound, how does the ED50 (sc, read-out: dose giving 50% inhibition of writhing (ED50)) read?
Answer: The ED50 was 3.9 mg/kg.
